Measured values published in US10967078B2, “Radiolabelled mGluR2 PET ligands” (Janssen Pharmaceutica NV, priority 2014, dated 2021).

How the values were obtained:
mGluR2 [1] = biological target: T1, mGluR2 (Mus musculus, UniProt Q14BI2); experiment: In vitro autoradiography binding on mGluR2 KO and WT mouse brain sections
T1 construct: horizontal sections of mGluR2 KO and WT mouse brain and of normal female Wistar rat brain; from tissue; host or cells: mouse brain sections (WT and mGluR2 KO), 20 µm
Procedure: (§1) In vitro autoradiography studies were performed on horizontal sections of mGluR2 KO and WT mouse brain and of normal female Wistar rat brain (20 μm). The sections were preincubated in 50 mM Tris-HCl (MgCl2 2 mM, CaCl2 2 mM; pH 7.0) for 10 min (two times) at room temperature and dried. Next, the brain sections were incubated with tracer [^11C]-2, [^11C]-5, [^11C]-4, [^11C]-1 or [^18F]-3 diluted in the same Tris-HCl buffer as used for the preincubation additionally containing 0.1% BSA or with this tracer solution in the presence of 10 μM Co. No. 2 or Co. No. 1. The mouse brain sections were incubated with 17 kBq of carbon-11 labeled tracer and 1.7 kBq of fluorine-18 labeled tracer. For the rat brain sections this was 44 kBq of carbon-11 labeled tracer and 0.44 kBq of fluorine-18 labeled tracer. After 30 min of incubation, the brain sections were washed three times for 5 min in ice-cold Tris-HCl 50 mM ((MgCl2 2 mM, CaCl2 2 mM; pH 7.0+0.1% BSA buffer). After a quick dip in purified ice-cold water, the slides were dried. Autoradiograms were obtained by exposing the slides overnight to a high-performance phosphor storage screen (super-resolution screen; Perkin Elmer, Waltham, USA). The screens were read using a Cyclone Plus system (Perkin Elmer) and analysed using Optiquant software (Perkin Elmer). The radioactivity concentration in the autoradiograms was expressed in digital light units (DLU)/mm^2.
(§2) To obtain additional information on the specificity of the tracer binding to mGluR2, in vitro autoradiography binding studies were performed on mGluR2 KO and WT mouse brain sections and on normal rat brain sections in presence or absence of a high concentration of mGluR2 NAM compounds (Co. No. 1 or Co. No. 2).

mGluR2 [2] = biological target: T2, mGluR2 (Rattus norvegicus, UniProt P31421); experiment: In vitro autoradiography binding on normal female Wistar rat brain sections
T2 construct: horizontal sections of mGluR2 KO and WT mouse brain and of normal female Wistar rat brain; from tissue; host or cells: normal female Wistar rat brain sections, 20 µm
Procedure: as §1, §2

[3] = WT mouse cortex, block with 10 μM Co. No. 1
[4] = WT mouse striatum, block with 10 μM Co. No. 1
[5] = self-blocking or blocking with Co. No. 1 (10 μM)

T2 sequence (P31421 19-872): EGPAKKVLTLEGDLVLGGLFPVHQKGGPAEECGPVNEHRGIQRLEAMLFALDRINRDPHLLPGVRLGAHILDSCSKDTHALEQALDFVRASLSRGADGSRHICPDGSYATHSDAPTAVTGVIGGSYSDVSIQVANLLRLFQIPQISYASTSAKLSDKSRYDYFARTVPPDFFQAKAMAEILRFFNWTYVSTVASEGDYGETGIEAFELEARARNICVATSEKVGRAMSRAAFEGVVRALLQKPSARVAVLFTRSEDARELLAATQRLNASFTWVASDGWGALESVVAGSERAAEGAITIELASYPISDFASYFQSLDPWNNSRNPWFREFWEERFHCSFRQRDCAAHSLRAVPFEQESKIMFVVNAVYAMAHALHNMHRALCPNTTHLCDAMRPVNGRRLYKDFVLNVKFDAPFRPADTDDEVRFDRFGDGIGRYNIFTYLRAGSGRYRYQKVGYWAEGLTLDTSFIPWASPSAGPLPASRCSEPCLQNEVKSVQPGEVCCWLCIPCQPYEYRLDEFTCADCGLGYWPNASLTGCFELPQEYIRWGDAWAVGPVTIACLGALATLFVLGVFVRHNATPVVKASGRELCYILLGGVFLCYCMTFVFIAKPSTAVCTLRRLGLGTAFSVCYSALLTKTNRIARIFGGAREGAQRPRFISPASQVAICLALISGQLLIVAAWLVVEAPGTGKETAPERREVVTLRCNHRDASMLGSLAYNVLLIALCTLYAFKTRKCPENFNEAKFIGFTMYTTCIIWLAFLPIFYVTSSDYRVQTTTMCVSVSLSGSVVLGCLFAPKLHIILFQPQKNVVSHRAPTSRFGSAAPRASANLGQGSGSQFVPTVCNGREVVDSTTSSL
T1 sequence (Q14BI2 19-872): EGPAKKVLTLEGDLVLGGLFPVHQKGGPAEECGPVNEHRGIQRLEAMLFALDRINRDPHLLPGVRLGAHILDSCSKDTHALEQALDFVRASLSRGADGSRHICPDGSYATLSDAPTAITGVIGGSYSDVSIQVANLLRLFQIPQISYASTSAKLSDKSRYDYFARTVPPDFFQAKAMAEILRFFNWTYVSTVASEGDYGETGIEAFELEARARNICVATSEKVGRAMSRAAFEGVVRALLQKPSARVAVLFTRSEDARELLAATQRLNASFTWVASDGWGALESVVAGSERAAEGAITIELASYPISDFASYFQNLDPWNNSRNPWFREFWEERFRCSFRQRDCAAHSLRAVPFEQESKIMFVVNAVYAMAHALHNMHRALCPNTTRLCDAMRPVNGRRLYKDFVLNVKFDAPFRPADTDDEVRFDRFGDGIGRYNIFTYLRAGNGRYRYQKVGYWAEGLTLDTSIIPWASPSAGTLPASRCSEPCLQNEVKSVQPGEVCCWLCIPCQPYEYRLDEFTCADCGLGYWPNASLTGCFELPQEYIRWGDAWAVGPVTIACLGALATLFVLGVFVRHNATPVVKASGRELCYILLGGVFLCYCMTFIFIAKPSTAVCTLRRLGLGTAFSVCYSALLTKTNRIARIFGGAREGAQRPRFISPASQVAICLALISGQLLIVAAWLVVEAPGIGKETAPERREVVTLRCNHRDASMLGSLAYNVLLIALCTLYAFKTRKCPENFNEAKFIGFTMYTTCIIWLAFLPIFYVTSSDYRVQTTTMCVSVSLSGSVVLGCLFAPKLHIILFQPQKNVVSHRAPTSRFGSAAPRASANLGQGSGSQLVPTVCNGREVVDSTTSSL

## C[C@H]1CN(c2ccc(C(F)(F)F)cc2)C(=O)c2c(-c3ccnc(N[11CH3])c3)cnn21 [[^11C]-2]
mGluR2 [1]; [3]
  Cortex WT (TB)/cortex WT (block Co. No. 1): ~6.7
  spec binding, cortex WT: (~85% spec
mGluR2 [1]; [4]
  Striatum WT (TB)/striatum WT (block Co. No. 1): ~8.3
  spec binding, striatum WT: (~88% spec
mGluR2 [1]; in words
  difference in tracer binding to WT and mGluR2 KO mouse brain sections: significant difference
mGluR2 [1]; total binding ratio, WT versus mGluR2 KO mouse brain sections, cortex
  Cortex WT (TB)/Cortex KO (TB): ~8.1
mGluR2 [1]; total binding ratio, WT versus mGluR2 KO mouse brain sections, striatum
  Striatum WT (TB)/Striatum KO (TB): ~4.8
mGluR2 [2]; in words
  total binding to normal rat brain sections: high binding
mGluR2 [2]; [5]
  decrease in binding in rat cortex: ~91%
  decrease in binding in rat striatum: ~78%
